Laboratory results as given in patent US11873298B2, “Compounds and uses thereof” (JANSSEN PHARMACEUTICA NV, priority 2017, dated 2024).

Tests used:
[1] = biological target: T1, SCD5 (Homo sapiens, UniProt Q86SK9); assay: Growth inhibition of humanized yeast strain expressing SCD5 as sole desaturase; type: cell-based
T1 construct: host or cells: S. cerevisiae ole1Δ strain (W303 pdr1Δ pdr3Δ background), plasmid pRS316 with TDH3 promoter and CYC1 terminator
T1 sequence (Q86SK9 1-330): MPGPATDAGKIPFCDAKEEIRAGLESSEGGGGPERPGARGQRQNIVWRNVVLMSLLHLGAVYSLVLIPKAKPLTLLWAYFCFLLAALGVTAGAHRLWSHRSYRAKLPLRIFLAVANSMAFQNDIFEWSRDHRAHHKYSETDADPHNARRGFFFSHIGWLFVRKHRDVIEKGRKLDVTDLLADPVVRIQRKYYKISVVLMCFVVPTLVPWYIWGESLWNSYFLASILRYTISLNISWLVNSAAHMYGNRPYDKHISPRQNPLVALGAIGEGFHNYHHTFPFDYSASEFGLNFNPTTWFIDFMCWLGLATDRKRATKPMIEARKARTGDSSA
Procedure, shortened: (§1)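 Plasmid-complemented ole1Δ yeast, drug-pump deleted (pdr1Δ pdr3Δ), depend solely on the introduced Ole1, SCD1 or SCD5 desaturase. Compounds are added from DMSO to cells in uracil-free galactose medium, 2× density 0.02, and OD600 is read after 24 h or 40 h respectively.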

[2] = biological target: T2, SCD1 (Homo sapiens, UniProt O00767); assay: Growth inhibition of humanized yeast strain expressing SCD1 as sole desaturase; type: cell-based
T2 construct: host or cells: S. cerevisiae ole1Δ strain (W303 pdr1Δ pdr3Δ background), plasmid pRS316 with TDH3 promoter and CYC1 terminator
T2 sequence (O00767 1-359): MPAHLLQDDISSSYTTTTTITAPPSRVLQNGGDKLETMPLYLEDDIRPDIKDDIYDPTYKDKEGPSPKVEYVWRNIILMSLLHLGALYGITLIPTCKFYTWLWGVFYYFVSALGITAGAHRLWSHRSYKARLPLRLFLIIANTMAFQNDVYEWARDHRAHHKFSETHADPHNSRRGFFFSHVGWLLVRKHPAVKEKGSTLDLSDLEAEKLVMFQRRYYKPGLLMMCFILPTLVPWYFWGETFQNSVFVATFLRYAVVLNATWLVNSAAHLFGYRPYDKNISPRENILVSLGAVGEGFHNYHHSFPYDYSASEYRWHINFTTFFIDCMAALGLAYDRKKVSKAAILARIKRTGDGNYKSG
Procedure, shortened: as §1

[3] = humanized yeast strain expressing SCD5
[4] = humanized yeast strain expressing SCD1
[5] = growth inhibition of humanized yeast strain expressing human SCD5
[6] = growth inhibition of humanized yeast strain expressing human SCD1

| Compound | IC50 ([1]; humanized yeast strain, 40 h) [µM] | IC50 ([2]; humanized yeast strain, 40 h) [µM] | further results |
| --- | --- | --- | --- |
| Cc1nn(C)c2cc(-c3noc(C4CCN(C(=O)CNC(=O)c5ccc(C#N)cc5)CC4(F)F)n3)ccc12 (centres unmarked) [Compound 601] |  |  | IC50 [1, 3]: 5.69 µM; IC50 [2, 4]: > 45 µM |
| O=C(OC1CCC1)N1CCC(c2nnc(-c3ccc4cnn(C5CCOC5)c4c3)o2)CC1 (centres unmarked) [Compound 1084] | 0.027 | > 45 |  |
| CC(C)(C)OC(=O)N1CCC(c2cc(-c3cc4c(cn3)cnn4C3COC3)on2)CC1 [Compound 1107] | 0.01 | > 45 |  |
| CC(C)(C)OC(=O)N1CCC(c2nc(-c3cccc(C(=O)C4COC4)c3)no2)CC1 [Compound 796] | 1.59 | > 45 |  |
| CC(C)(C)OC(=O)N1CCN(c2nc(-c3ccc4cnn(C5CCC5)c4c3)no2)CC1 [Compound 721] |  |  | IC50 [1, 5]: 1.65 µM; IC50 [2, 6]: > 45 µM |
| C[C@H](NC(=O)[C@H]1[C@@H]2CN(C(=O)OC(C)(C)C)C[C@@H]21)c1ccccc1 [Compound 769] | > 45 | > 45 |  |
| CC(C)n1ncc2ccc(-c3nc(C4CCN(C(=O)CC5CC5)CC4)no3)cc21 [Compound 853] | 0.01 | > 45 |  |
| O=C(N1CCC(c2noc(-c3ccc4cnn(C5CCOC5)c4c3)n2)CC1)C1(F)CCC1 (centres unmarked) [Compound 1028] | 0.01 | 0.953 |  |
| CC(C)n1ncc2ccc(-c3noc(C4CCN(C(=O)CNC(=O)c5cccc(F)c5)CC4(F)F)n3)cc21 (centres unmarked) [Compound 551] |  |  | IC50 [1, 3]: > 45 µM; IC50 [2, 4]: > 45 µM |
| CCC(=O)N1CCN(c2noc(-c3ccc4cnn(C5COC5)c4c3)n2)CC(F)(F)C1 [Compound 1038] | 2.3 | > 45 |  |
| CC(C)c1noc2ccc(-c3noc(C4CCN(C(=O)OC(C)(C)C)CC4)n3)cc12 [Compound 639] |  |  | IC50 [1, 5]: 4.79 µM; IC50 [2, 6]: > 45 µM |
| C=C(C)c1ncn2ccc(-c3noc(C4CCN(C(=O)OC(C)(C)C)CC4)n3)cc12 [Compound 855] | > 45 | > 45 |  |
| CC(C)(C)OC(=O)N1CCC(c2nc(-c3ccc4c(c3)N(C3COC3)C(=O)CC4)no2)CC1 [Compound 662] |  |  | IC50 [1, 5]: > 45 µM; IC50 [2, 6]: > 45 µM |
| O=C(N1CCC(c2noc(-c3ccc4cnn(C5COC5)c4c3)n2)CC1)C12CC(C1)C2 [Compound 890] | 0.01 | 22.7 |  |
| O=C(OC1CC1)N1CCN(c2nc(-c3ccc4cnn(C5COC5)c4c3)no2)CC1 [Compound 642] |  |  | IC50 [1, 5]: 0.211 µM; IC50 [2, 6]: > 45 µM |
| CC(C)(C)OC(=O)N1CCC(c2nc(-c3cccc(C(=O)N4CCC4)c3)no2)CC1 [Compound 741] |  |  | IC50 [1, 5]: 7.76 µM; IC50 [2, 6]: > 45 µM |
| CC(C)n1ncc2ccc(-c3nc(N4CCN(C(=O)CC5CC5)CC4)no3)cc21 [Compound 874] | 0.05 | > 45 |  |
| CC(C)(C)OC(=O)N1CCN(c2noc(-c3cccc(C4CCCO4)c3)n2)CC1 (centres unmarked) [Compound 785] | 0.041 | 9.21 |  |
| CC(C)n1ncc2ccc(-c3nc(N4CCN(C(=O)c5ncccc5F)CC4)no3)cc21 [Compound 845] | 0.637 | > 45 |  |

| Compound | IC50 ([1]; humanized yeast strain, 40 h) [µM] | IC50 ([2]; humanized yeast strain, 40 h) [µM] | further results |
| --- | --- | --- | --- |
| CC1(OC(=O)N2CC(c3nc(-c4ccc5cnn(C6COC6)c5c4)no3)C2)CC1 [Compound 724] |  |  | IC50 [1, 5]: 1.25 µM; IC50 [2, 6]: > 45 µM |
| CC(C)(C)OC(=O)N1CCN(c2noc(-c3ccc4c(c3)C3(CCC3)OC4)n2)CC1 [Compound 831] | 1.2 | > 45 |  |
| CCC(=O)N1CCC(c2noc(-c3cccc(N4CCOCC4)c3F)n2)CC1 [Compound 1159] | > 45 | > 45 |  |
| CC(C)n1ncc2ccc(-c3noc(N4CCC5(CCO5)CC4)n3)cc21 [Compound 744] |  |  | IC50 [1, 5]: > 45 µM; IC50 [2, 6]: > 45 µM |
| CC(=O)N1CC(CC(=O)N2CCC(c3nc(-c4ccc5c(C)nn(C)c5c4)no3)CC2)C1 [Compound 638] |  |  | IC50 [1, 5]: > 45 µM; IC50 [2, 6]: > 45 µM |
| CC(C)(C)OC(=O)N1CCC(c2noc(-c3cccc(C4CCCO4)c3)n2)CC1 (centres unmarked) [Compound 812] | 0.01 | > 45 |  |
| COC1(c2nc(-c3ccc4cnn(C(C)C)c4c3)no2)CCN(C(=O)OC(C)(C)C)CC1 [Compound 836] | 1.44 | > 45 |  |
| COC(=O)N1CCC(c2nc(-c3ccc4cnn([C@H]5CCOC5)c4c3)no2)CC1 [Compound 906] | 0.89 | > 45 |  |
| CC(C)n1ncc2ccc(-c3noc(C4CCN(C(=O)c5ccc(Cl)cc5)CC4)n3)cc21 [Compound 363] |  |  | IC50 [1, 3]: > 45 µM; SCD5 % Max Inhibition [1, 3]: 1.99%; SCD1 % Max Inhibition [2, 4]: 64.44% |
| COC1(C(=O)N2CCC(c3noc(-c4ccc5cnn(C6COC6)c5c4)n3)CC2)CC1 [Compound 902] | 0.01 | > 45 |  |
| CC1(OC(=O)N2CCN(c3nc(-c4ccc5cnn(C6COC6)c5c4)no3)CC2)CC1 [Compound 620] |  |  | IC50 [1, 5]: 0.013 µM; IC50 [2, 6]: > 45 µM |
| CC(C)(C)OC(=O)N1CCC(c2noc(-c3cccc([C@H]4CCOC4)c3)n2)CC1 [Compound 789] | 0.01 | > 45 |  |
| COC(=O)N1CCC(c2nnc(-c3ccc4cnn(C(C)C)c4c3)o2)CC1 [Compound 852] | 5.36 | > 45 |  |
| CC(C)(C)OC(=O)N1CCC(c2cnc(-c3ccc4cnn(C5COC5)c4c3)nc2)CC1 [Compound 985] | 2.56 | > 45 |  |
| Cc1nn(C)c2cc(-c3nc(C4CCN(C(=O)C(C)C)CC4)no3)ccc12 [Compound 938] | > 45 | > 45 |  |
| O=C(N1CCN(c2noc(-c3ccc4cnn(C5COC5)c4c3)n2)CC1)C12CC(C1)C2 [Compound 843] | 0.033 | > 45 |  |
| CC(C)n1ncc2ccc(-c3nc(C4CCNC4)no3)cc21 (centres unmarked) [Compound 531] |  |  | IC50 [1, 3]: > 45 µM; IC50 [2, 4]: > 45 µM |
| COC(=O)N1CCC(c2noc(-c3ccc4cnn([C@H]5CCOC5)c4c3)n2)CC1 [Compound 879] | 0.01 | 5.5 |  |
| O=C(c1ccccc1)N1CCN(c2noc(-c3ccc4cnn(C5COC5)c4c3)n2)CC1 [Compound 712] |  |  | IC50 [1, 5]: 0.016 µM; IC50 [2, 6]: > 45 µM |

| Compound | IC50 ([1]; humanized yeast strain, 40 h) [µM] | IC50 ([2]; humanized yeast strain, 40 h) [µM] | further results |
| --- | --- | --- | --- |
| COC(=O)N1CCC(F)(c2nc(-c3ccc4cnn(C(C)C)c4c3)no2)CC1 [Compound 622] |  |  | IC50 [1, 5]: 1.61 µM; IC50 [2, 6]: > 45 µM |
| CC(C)n1nc(CCN(C)C)c2ccc(-c3noc(C4CCN(C(=O)OC(C)(C)C)CC4)n3)cc21 [Compound 759] | > 45 | > 45 |  |
| CC(C)(C)OC(=O)N1CCC(c2nc(-c3ccc4cnc(C#N)n4c3)no2)CC1 [Compound 942] | 9.16 | > 45 |  |
| O=C(N1CCC(c2noc(-c3cc(F)c4cnn(C5COC5)c4c3)n2)CC1)C1(F)CC1 [Compound 1062] | 0.01 | 29 |  |
| C[C@@H]1C[C@@H](c2noc(-c3ccc4cnn(C5COC5)c4c3)n2)CCN1C(=O)C1(F)CC1 [Compound 1065] | 0.000386 | > 45 |  |
| COC(=O)N1CCC(c2noc(-c3ccc4cnn(C5CCC(F)(F)C5)c4c3)n2)CC1 (centres unmarked) [Compound 1078] | 0.033 | > 45 |  |
| O=C(C1CCC1)N1CCC(c2noc(-c3ccc4cnn([C@@H]5CCOC5)c4c3)n2)CC1 [Compound 1093] | 0.00253 | > 45 |  |
| CC(C)N1C(=O)Cc2ccc(-c3noc(C4CCN(C(=O)CC5(C)CC5)CC4)n3)cc21 [Compound 626] |  |  | IC50 [1, 5]: 2.75 µM; IC50 [2, 6]: > 45 µM |
| CC(C)(C)OC(=O)N1CC(n2ncc3ccc(-c4nc(N5CCn6c(Cl)cnc6C5)no4)cc32)C1 [Compound 925] | > 45 | > 45 |  |
| CC(CF)n1ncc2ccc(-c3noc(C4CCN(C(=O)CC(C)(C)C)CC4)n3)cc21 (centres unmarked) [Compound 583] |  |  | IC50 [1, 3]: 0.989 µM; IC50 [2, 4]: > 45 µM |
| CC(C)n1ncc2ccc(-c3nc(N4CCN(C(=O)c5ccccc5Cl)CC4)no3)cc21 [Compound 580] |  |  | IC50 [1, 3]: 0.022 µM; IC50 [2, 4]: 14.1 µM |
| CC(C)(C)OC(=O)N1CCC(c2noc(-c3ccc(=O)n(C4CCOC4)c3)n2)CC1 (centres unmarked) [Compound 1114] | 0.116 | > 45 |  |
| CC(C)C(=O)N1CCC(c2noc(N3CCc4nn(C5COC5)cc4C3)n2)CC1 [Compound 1195] | > 45 | > 45 |  |
| CC(C)(C)OC(=O)N1CC(c2nc(-c3ccc4cn(C5COC5)nc4c3)no2)C1 [Compound 708] |  |  | IC50 [1, 5]: > 45 µM; IC50 [2, 6]: > 45 µM |
| COC(=O)N1CCC(c2nc(-c3ccc4cnn(C5COC5)c4c3)no2)CC1 [Compound 635] |  |  | IC50 [1, 5]: 0.397 µM; IC50 [2, 6]: > 45 µM |
| CC(C)n1ncc2ccc(-c3noc(N4CCC(O)(CCCl)CC4)n3)cc21 [Compound 763] | 18 | 29.5 |  |
| c1cc2cnn(C3COC3)c2cc1-c1nc(N2CCNCC2)no1 [Compound 751] | > 45 | > 45 |  |
| O=C(C1CCC1)N1CCC(c2noc(-c3cc(F)c4cnn(C5COC5)c4c3)n2)CC1 [Compound 1061] | 0.01 | > 45 |  |
